# Laboratory results: patent US20080009435A1, “Synthetic methods for aplidine and new antitumoral derivatives, methods of making and using them” (Pharma Mar, S.A., a Spain corporation, priority 2000, published 2008)
# pIC50: −log10 of the molar value. Read-outs that look alike come from different tables or passages of the source. *1 amine or outer side, *2 acyl side, *3 side chain or, on linkers, in order; H or OH if unused. Where a SMILES comes first, the peptide text is derived from it. Bridges are numbered along the chain shown (N, C = ends). [ ]: non-standard residue; d: D form. The star is where a group is joined. X1 = CC[C@H](C)[C@@H](N[*:1])[C@@H](O)CC(=O)O[C@H](C(=O)[C@H](C)C(=O)[*:2])C(C)C; NMeY = CN[C@@H](Cc1ccc(O)cc1)C(=O)O; dNMeL = CN[C@H](CC(C)C)C(=O)O; Pyruvoyl = CC(=O)C(=O)*
# Experiments:
# PANC-1 (Pancreas) = test: IC50 Aplidine Family panel (MTT); type: cell-based
# FADU (Pharynx) = test: IC50 Aplidine Family panel (MTT/MTS); type: cell-based; details: MTT, read-out: IC50 (Molar) Pharynx FADU
# [1] = system: HL-60 (ALL, Promyelocytic leukemia); test: IC50 Aplidine Family panel (MTT/MTS); type: cell-based; details: MTT, read-out: IC50 (Molar) ALL (Promyelocytic leukemia) HL-60
# HT-29 (Colon) = test: IC50 Aplidine Family panel (MTT/MTS); type: cell-based, human; details: MTT, read-out: IC50 (Molar) Colon HT-29
# [2] = system: P3HR1 (Lymphoma, Burkitts ascites); test: IC50 Aplidine Family panel (MTT); type: cell-based
# PC-3 (Prostate) = test: IC50 Aplidine Family panel (MTT); type: cell-based; details: read-out: IC50 (Molar) Prostate PC-3
# MX-1 (Breast) = test: IC50 Aplidine Family panel (MTT/MTS); type: cell-based; details: MTT; read-out: IC50 (Molar) Breast MX-1
# 786-O (Renal) = test: IC50 Aplidine Family panel (MTT); type: cell-based
# SK-HEP-1 (Liver) = test: IC50 Aplidine Family panel (MTT/MTS); type: cell-based; details: MTT, read-out: IC50 (Molar) Liver SK-HEP-1
# [3] = system: U-937 (Lymphoma, Histiocytic); test: IC50 Aplidine Family panel (MTT); type: cell-based
# SW 694 (Fibrosarcoma) = test: IC50 Aplidine Family panel (MTT/MTS); type: cell-based; details: MTT; read-out: IC50 (Molar) Fibrosarcoma SW 694
# 5637 (Bladder) = test: IC50 Aplidine Family panel (MTT/MTS); type: cell-based; details: MTT; read-out: IC50 (Molar) Bladder 5637
# [4] = doses near those required for therapeutic applications; cited from earlier work
# SK-OV-3 (Ovary) = test: IC50 Aplidine Family panel (MTT); type: cell-based
# [5] = system: K562 (CML, Chronic myelogenous); test: IC50 Aplidine Family panel (MTT/MTS); type: cell-based; details: MTT, read-out: IC50 (Molar) CML (Chronic myelogenous) K562
# Hs746t (Gastric) = test: IC50 Aplidine Family panel (MTT/MTS); type: cell-based; details: MTT, read-out: IC50 (Molar) Gastric Hs746t
# [6] = system: MC116 (Lymphoma, undifferentiated); test: IC50 Aplidine Family panel (MTT/MTS); type: cell-based; details: MTT, read-out: IC50 (Molar) Lymphoma (undifferentiated) MC116
# [7] = system: Hut 78 (Lymphoma, Cutaneous T cell); test: IC50 Aplidine Family panel (MTT); type: cell-based
# H9 (Lymphoma, T cell) = test: IC50 Aplidine Family panel (MTT/MTS); type: cell-based; details: MTT, read-out: IC50 (Molar) Lymphoma (T cell) H9
# CCRF-SB (ALL, B-cell) = test: IC50 Aplidine Family panel (MTT); type: cell-based; details: read-out: IC50 (Molar) ALL (B-cell) CCRF-SB
# [8] = system: Molt 3 (ALL, Acute lymphobalstic); test: IC50 Aplidine Family panel (MTT/MTS); type: cell-based; details: MTT, read-out: IC50 (Molar) ALL (Acute lymphobalstic) Molt 3
# A549 (NSCL) = test: IC50 Aplidine Family panel (MTT/MTS); type: cell-based, human; details: MTT, read-out: IC50 (Molar) NSCL A549
# MEL-28 human melanoma = test: Cytotoxicity IC50 (after Berjeron et al); details: Homo sapiens, SK-MEL-28, read-out: Cytotoxicity of [aa3]-aplidine Congeners IC50 (Molar) MEL28
# Source text: (§1) Methodology: after Berjeron et al, Biochem and Bioph Res. Comm., 1984, 121, 3, 848-854.
# (§2) P388=Murine lymphoma. A549=human lung carcinoma. HT-29=human colon carcinoma. MEL-28=human melanoma.
# (§3) A549=human lung carcinoma. HT-29=human colon carcinoma. MEL-28=human melanoma.
# [9] = system: A549 human lung carcinoma; test: Cytotoxicity IC50 (after Berjeron et al); details: Homo sapiens, A549, read-out: Cytotoxicity of [aa3]-aplidine Congeners IC50 (Molar) A549
# Source text: as §1, §2, §3
# P388 Murine lymphoma = test: Cytotoxicity IC50 (after Berjeron et al); details: Mus musculus, P388, read-out: Cytotoxicity of [aa3]-aplidine Congeners IC50 (Molar) P388
# Source text: as §1, §2, §3
# [10] = system: HT-29 human colon carcinoma; test: Cytotoxicity IC50 (after Berjeron et al); details: Homo sapiens, HT-29, read-out: Cytotoxicity of [aa3]-aplidine Congeners IC50 (Molar) HT29
# Source text: as §1, §2, §3
# [11] = system: ARH-77 (Leukemia, Plasma cell); test: IC50 Aplidine Family panel (MTT); type: cell-based; details: Homo sapiens, read-out: IC50 (Molar) Leukemia (Plasma cell) ARH-77
smiles,measurement,setting,value
CC[C@H](C)[C@H]1NC(=O)[C@@H](NC(=O)[C@@H](CC(C)C)N(C)C(=O)[C@@H]2CCCN2C(=O)C(C)O)[C@@H](C)OC(=O)[C@H](Cc2ccc(OC)cc2)N(C)C(=O)[C@@H]2CCCN2C(=O)[C@H](CC(C)C)NC(=O)[C@@H](C)C(=O)[C@H](C(C)C)OC(=O)C[C@@H]1O (some centres unmarked) [Didemnin B],pIC50,PANC-1 (Pancreas); read-out: IC50 (Molar) Pancreas PANC-1,9.82
same,pIC50,FADU (Pharynx),7.01
same,pIC50,[1],6.84
same,pIC50,HT-29 (Colon),7.09
same,pIC50,[2]; read-out: IC50 (Molar) Lymphoma (Burkitts ascites) P3HR1,7.25
same,pIC50,PC-3 (Prostate),7.05
same,pIC50,MX-1 (Breast),5.81
same,pIC50,786-O (Renal); read-out: IC50 (Molar) Renal 786-O,6.54
same,pIC50,SK-HEP-1 (Liver),7.04
same,pIC50,[3]; read-out: IC50 (Molar) Lymphoma (Histiocytic) U-937,6.73
same,pIC50,SW 694 (Fibrosarcoma),5.48
same,pIC50,5637 (Bladder),7.60
same,toxicity,[4],toxic at doses near those required for therapeutic applications
same,pIC50,SK-OV-3 (Ovary); read-out: IC50 (Molar) Ovary SK-OV-3,6.79
same,pIC50,[5],5.48
same,pIC50,Hs746t (Gastric),8.18
same,pIC50,[6],8.05
same,pIC50,[7]; read-out: IC50 (Molar) Lymphoma (Cutaneous T cell) Hut 78,7.45
same,pIC50,"H9 (Lymphoma, T cell)",6.67
same,pIC50,"CCRF-SB (ALL, B-cell)",6.18
same,pIC50,[8],6.26
same,pIC50,A549 (NSCL),3.92
"CC[C@H](C)[C@H]1NC(=O)[C@@H](NC(=O)[C@@H](CC(C)C)N(C)C(=O)[C@@H]2CCCN2C(=O)C(C)=O)[C@@H](C)OC(=O)[C@H](Cc2ccc(OC)cc2)N(C)C(=O)[C@@H]2CCCN2C(=O)[C@H](CC(C)C)NC(=O)[C@@H](C)C(=O)[C@H](C(C)C)OC(=O)C[C@@H]1O [SAPL1, Aplidine] (Pyruvoyl-P[dNMeL]T[X1]LP[NMeY](Me); ester 3-C)",pIC50,MEL-28 human melanoma,9.35
same,pIC50,"PANC-1 (Pancreas); Homo sapiens, PANC-1, read-out: IC50 (Molar) Pancreas PANC-1",6.77
same,pIC50,"FADU (Pharynx); Homo sapiens, FaDu",7.14
same,pIC50,"[1]; Homo sapiens, HL-60",7.10
same,pIC50,"HT-29 (Colon); Homo sapiens, HT-29",6.16
same,pIC50,[9],9.74
same,pIC50,"[2]; Homo sapiens, P3HR-1, read-out: IC50 (Molar) Lymphoma (Burkitts ascites) P3HR1",7.27
same,pIC50,P388 Murine lymphoma,9.74
same,pIC50,MX-1 (Breast),6.78
same,pIC50,"786-O (Renal); Homo sapiens, 786-0, read-out: IC50 (Molar) Renal 786-O",7.08
same,pIC50,"SK-HEP-1 (Liver); Homo sapiens, SK-HEP1",7.03
same,pIC50,"[3]; Homo sapiens, U-937, read-out: IC50 (Molar) Lymphoma (Histiocytic) U-937",6.25
same,pIC50,SW 694 (Fibrosarcoma),5.83
same,pIC50,5637 (Bladder),7.44
same,pIC50,"SK-OV-3 (Ovary); Homo sapiens, SK-OV-3, read-out: IC50 (Molar) Ovary SK-OV-3",7.14
same,pIC50,[10],9.35
same,pIC50,"[5]; Homo sapiens, K562",6.24
same,pIC50,"Hs746t (Gastric); Homo sapiens, Hs746T",7.60
same,pIC50,"[6]; Homo sapiens, MC116",6.04
same,pIC50,"[7]; Homo sapiens, HuT78, read-out: IC50 (Molar) Lymphoma (Cutaneous T cell) Hut 78",7.35
same,pIC50,"H9 (Lymphoma, T cell); T-cell",6.28
same,pIC50,[11],6.75
same,pIC50,"CCRF-SB (ALL, B-cell); Homo sapiens, CCRF-SB",6.33
same,pIC50,"[8]; Homo sapiens, MOLT-3",6.23
same,pIC50,"A549 (NSCL); Homo sapiens, A549",4.62
